Patent US5292887A, “Substituted imidazole derivatives and their preparation and use” (priority 1988, dated 1994)

Assays:
α1-adrenoceptor = target: T1, α1-adrenoceptor (Rattus norvegicus, UniProt P43140); assay: α1-adrenoceptor antagonism, phenylephrine-induced contraction of isolated anococcygeus muscle; conditions: vs phenylephrine, read-out: α1-antagonism (pA2 vs phenylephrine) (converted)
T1 sequence (P43140 1-466): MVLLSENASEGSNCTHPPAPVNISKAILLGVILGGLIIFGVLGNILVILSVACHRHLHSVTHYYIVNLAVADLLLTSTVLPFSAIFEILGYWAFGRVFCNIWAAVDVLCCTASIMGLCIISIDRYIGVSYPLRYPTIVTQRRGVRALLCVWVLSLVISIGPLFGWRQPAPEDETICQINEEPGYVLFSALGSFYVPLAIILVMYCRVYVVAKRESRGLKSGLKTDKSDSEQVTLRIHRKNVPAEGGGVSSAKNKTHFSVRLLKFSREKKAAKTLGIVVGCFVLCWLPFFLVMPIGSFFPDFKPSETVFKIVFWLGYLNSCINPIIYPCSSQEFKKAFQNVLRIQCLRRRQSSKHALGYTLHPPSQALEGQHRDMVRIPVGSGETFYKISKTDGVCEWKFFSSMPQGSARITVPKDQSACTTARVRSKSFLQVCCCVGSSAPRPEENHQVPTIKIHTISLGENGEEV
Protocol: 2. α1 -adrenoceptor antagonism
To obtain information also on the selectivity of the antagonist between α1 - and α2 -receptors, its ability to inhibit α1 -receptors was determined by means of isolated anococcygeus muscle (rat). The reference substances were now phenylephrine, a known α1 -agonist, and prazosin, a known α1 -antagonist. To determine α1 -antagonism, muscular contraction was induced by phenylephrine and the pA2 value of the studied compound was determined (Arunlakshana & Schild, Br. J. Pharmacol. 14, 48-62, 1959).

α2-adrenoceptor [1] = target: T2, α2-adrenoceptor (Rattus norvegicus, UniProt P22909); assay: Reversal of detomidine-induced mydriasis in anaesthetized rat (α2-adrenoceptor antagonism); assay type: in vivo; conditions: dose producing 50 per cent reversal of detomidine-induced mydriasis; for ED50: iv
T2 construct: In anaesthetized rat, a standard dose of detomidine was administered intravenously; from tissue; host or cells: whole anaesthetized rat (pupil response, in vivo)
T2 sequence (P22909 1-465): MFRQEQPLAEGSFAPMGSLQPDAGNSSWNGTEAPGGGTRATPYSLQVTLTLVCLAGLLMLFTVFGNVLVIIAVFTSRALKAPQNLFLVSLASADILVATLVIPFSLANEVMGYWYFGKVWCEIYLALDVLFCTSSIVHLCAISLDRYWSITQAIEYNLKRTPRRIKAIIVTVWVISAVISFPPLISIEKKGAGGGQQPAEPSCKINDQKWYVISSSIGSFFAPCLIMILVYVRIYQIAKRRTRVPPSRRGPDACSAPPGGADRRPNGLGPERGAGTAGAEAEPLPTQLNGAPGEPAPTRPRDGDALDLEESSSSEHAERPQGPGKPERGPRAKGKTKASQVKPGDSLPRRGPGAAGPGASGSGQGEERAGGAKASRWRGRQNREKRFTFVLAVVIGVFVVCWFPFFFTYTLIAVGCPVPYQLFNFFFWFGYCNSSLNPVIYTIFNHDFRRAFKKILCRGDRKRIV

[2] = tested on: isolated rat pancreas (postsynaptic α2-adrenoceptors); assay: Potentiation of insulin release from isolated perfused pancreas; parameters: species or system rat (Sprague-Dawley); conditions: 1 × 10^-6 M, 11 mM glucose; for Insulin in the perfusate, -5 min: before compound addition
Protocol: 3. Potentiation of insulin release from isolated pancreas
Samples for determination of insulin concentration in the perfusate were collected before and during 30 min after adding the studied compounds+glucose. Insulin was measured by a RIA-kit (NOVO).

α2-adrenoceptor [3] = target: T2, α2-adrenoceptor; assay: Duration of the α2-blocking action (time for antagonism of detomidine mydriasis to fall by half, oral); assay type: in vivo; conditions: oral at equipotent doses, time taken for antagonism of 0,1 mg/kg detomidine mydriasis to fall by half
Protocol: It is known that in the rat α2 -agonists induce dilatation of the pupil (mydriasis) which effect is transmitted via postsynaptic α2 -receptors. In anaesthetized rat, a standard dose of detomidine was administered intravenously. Thereafter increasing doses of the studied antagonist were injected intravenously and the reversal of detomidine-induced mydriasis was followed. The ED50 value of the antagonist, i.e. the dose producing a 50 per cent reversal, was determined.
The duration of the α2 -blocking action of the compounds was determined as follows: the antagonists were administered orally at eqvipotent doses to groups of 4 rats 1, 2, 4, 7 or 16 hours before induction of anaesthesia and challenge with cumulative i.v. dosing of detomidine. By calculating the percentage antagonism of the mydriatic effect of 0,1 mg/kg detomidine for each pretreatment group, a time-effect relationship was established. This in turn permitted the measurement of the time taken for the antagonist effect to fall by half.

| Structure (SMILES) | Kb (α1-adrenoceptor) | ED50 (α2-adrenoceptor [1]) | Duration of α2-antagonism (α2-adrenoceptor [3]) | Insulin in the perfusate, +1 min [2] | Insulin in the perfusate, +10 min [2] | Insulin in the perfusate, +20 min [2] | Insulin in the perfusate, +30 min [2] | Insulin in the perfusate, -5 min [2] | α2-antagonism (ED50 vs detomidine) (α2-adrenoceptor [1]; i.v.) |
| --- | --- | --- | --- | --- | --- | --- | --- | --- | --- |
| CCn1cnc(C2(CC)Cc3ccccc3C2)c1 [compound 2, 1-ethyl-4-(2-ethyl-2,3-dihydro-1H-inden-2-yl)-1H-imidazole] | 6.31 µM | 0.2 mg/kg |  |  |  |  |  |  |  |
| CCn1cnc(C2(CO)Cc3ccccc3C2)c1 [compound 10, [2-(1-ethyl-1H-imidazol-4-yl)-2,3-dihydro-1H-inden-2-yl]methanol] | > 10 µM | 0.3 mg/kg | 7.0 h |  |  |  |  |  |  |
| c1ccc2c(c1)OCC(C1=NCCN1)O2 (stereo not drawn) [idazoxan, reference compound] | 5.01 µM |  | < 1 h |  |  |  |  |  | 0.02 mg/kg |
| CCCC1(c2cn(CC)cn2)Cc2ccccc2C1 [compound 8, 1-ethyl-4-(2,3-dihydro-2-n-propyl-1H-inden-2-yl)-1H-imidazole] | > 10 µM | 0.3 mg/kg |  |  |  |  |  |  |  |
| OCC1(c2c[nH]cn2)Cc2ccccc2C1 [compound 6, [2,3-dihydro-2-(1H-imidazol-4-yl)-1H-inden-2-yl]methanol] | > 10 µM | 0.2 mg/kg |  |  |  |  |  |  |  |
| CCn1cnc(C2(COC)Cc3ccccc3C2)c1 [compound 11, 1-ethyl-4-(2,3-dihydro-2-methoxymethyl-1H-inden-2-yl)-1H-imidazole] | > 10 µM | 0.1 mg/kg | 7.0 h |  |  |  |  |  |  |
| CCC1(c2cnc[nH]2)Cc2ccccc2C1 [atipamezole, reference compound] | > 10 µM |  | 1.0 h | 5.0 ng/mL | 3.0 ng/mL | 6.3 ng/mL | 15.1 ng/mL | < 0.1 ng/mL |  |
| CCC1(c2cn(Cc3ccccc3)cn2)Cc2ccccc2C1 [compound 4, 1-benzyl-4-(2-ethyl-2,3-dihydro-1H-inden-2-yl)-1H-imidazole] | 1 µM | 2 mg/kg |  |  |  |  |  |  |  |

More lines, main results first:

| Kb (α1-adrenoceptor) | ED50 (α2-adrenoceptor [1]) | Duration of α2-antagonism (α2-adrenoceptor [3]) | Structure (SMILES) | Insulin in the perfusate, +1 min [2] | Insulin in the perfusate, +10 min [2] | Insulin in the perfusate, +20 min [2] | Insulin in the perfusate, +30 min [2] | Insulin in the perfusate, -5 min [2] | α2-antagonism (ED50 vs detomidine) (α2-adrenoceptor [1]; i.v.) |
| --- | --- | --- | --- | --- | --- | --- | --- | --- | --- |
| > 10 µM | 0.3 mg/kg | 7.0 h | COCC1(c2cn(C)cn2)Cc2ccccc2C1 [compound 7, 4-(2,3-dihydro-2-methoxymethyl-1H-inden-2-yl)-1-methyl-1H-imidazole] | 26.0 ng/mL | 11.5 ng/mL | 15.9 ng/mL | 22.0 ng/mL | < 0.1 ng/mL |  |
| 6.31 µM | 0.3 mg/kg |  | CCCn1cnc(C2(CC)Cc3ccccc3C2)c1 [compound 3, 4-(2-ethyl-2,3-dihydro-1H-inden-2-yl)-1-n-propyl-1H-imidazole] |  |  |  |  |  |  |
| > 10 µM | 0.2 mg/kg | 16.0 h | CCn1cnc(C2(CC)Cc3ccccc3C2=O)c1 (stereo not drawn) [compound 12, 2-ethyl-2-(1-ethyl-1H-imidazol-4-yl)-1-indanone] |  |  |  |  |  |  |
| > 10 µM | 0.3 mg/kg |  | CCCC1(c2cn(C)cn2)Cc2ccccc2C1 [compound 9, 4-(2,3-dihydro-2-n-propyl-1H-inden-2-yl)-1-methyl-1H-imidazole] |  |  |  |  |  |  |
| > 10 µM | 0.1 mg/kg | 11.0 h | CCC1(c2cn(C)cn2)Cc2ccccc2C1=O (stereo not drawn) [compound 5, 2-ethyl-2-(1-methyl-1H-imidazol-4-yl)-1-indanone] |  |  |  |  |  |  |
| 7.94 µM | 0.3 mg/kg | 2.0 h | CCC1(c2cn(C)cn2)Cc2ccccc2C1 [compound 1, 4-(2-ethyl-2,3-dihydro-1H-inden-2-yl)-1-methyl-1H-imidazole] |  |  |  |  |  |  |
